This is an account of results in patent publication US20120315290A1, “INHIBITORS OF LL-37 MEDIATED IMMUNE REACTIVITY TO SELF NUCLEIC ACIDS” (BOARD OF REGENTS, THE UNIVERSITY OF TEXAS SYSTEM, priority 2006, published 2012).

For assay [1], the system named is plasmacytoid dendritic cells (pDC). Briefly: IFN-α and cytokine production by purified human pDC (ELISA of supernatants). Format: cell-based. For orientation: In an ELISA, binding on a coated surface is turned into a signal by an enzyme label.
The subject of assay [2] is Thy1.2 positive CD4 T cells. Briefly: Adjuvant activity: expansion of transferred HNT-TCR Tg CD4+ T cells in draining LN. To be noted: 35 μg s.c. with A20 lysate plus HNT peptide. The assay is classed as in vivo, BALB/c Thy1.1 mice. The method, then: CD4+ T cells were purified from spleen and LN of HNT-TCR Tg mice (Thy 1.2), labeled with CFSE, and adoptively transferred (1×10^6) into BALB/c Thy1.1 mice. Next day, mice were immunized s.c. with (a) 5×10 ^6 A20 lysate plus HNT peptide and CpG-2216 ([…]); (b) A20 lysate plus HNT peptide and LL-37 ([…]); (c) A20F lysate plus HNT peptide; or (d) left untreated. Four days after immunization draining LN were harvested and Thy 1.2 positive CD4 T cells were measured by flow cytometry.
In another set of experiments, CD4+ T cells were purified from spleen and LN of HNT-TCR Tg mice (Thy 1.2), labeled with CFSE, and adoptively transferred (1×10^6) into BALB/c Thy1.1 mice. Next day, mice were immunized subcutaneously with 5×10^6 A20 lysate plus HNT peptide and CpG-2216 (35 μg), A20 lysate plus HNT peptide and LL-37 (35 μg), A20F lysate plus HNT peptide, or left untreated. Four days after immunization draining LN were harvested and Thy1.2 positive CD4 T cells were measured by flow cytometry.

The test system of assay [3] is myeloid (monocyte-derived) DC. Briefly: Myeloid DC maturation (CD80) and cytokine secretion. The following applies: RNA 10 μg ml^−1 premixed with LL-37 (10 μM), overnight culture. The assay is classed as cell-based, human. The method, then:
Myeloid (monocyte-derived) DC were stimulated with RNA isolated from U937 cells (human RNA) or a synthetic single-stranded RNA sequence derived from HIV (ssRNA40) and a known TL-7/8 ligand either alone ([…]) or after premixing with LL-37 (10 μM). (a) Maturation was assessed by flow cytometry analysis of CD80 after overnight culture.
In a second set of experiments, myeloid (monocyte-derived) DC were stimulated with RNA isolated from U937 cells (human RNA) or a synthetic single-stranded RNA sequence derived from HIV (ssRNA40) and a known TLR-7/8 ligand either alone (10 μg ml^−1) or after premixing with LL-37 (10 μM). Maturation was assessed by flow cytometry analysis of CD80 after overnight culture (FIG. 21A). Levels of TNF-α, IL-6, EL-12, and IL-23 were measured after overnight culture (FIG. 21B).

Assay [4] relates to B16 tumors. In words: Intratumoral or intramuscular injection, cytokine mRNA by real-time PCR. Format: in vivo, C57BL/6 mice. The method, then:
[…] of LL-37, CpG-A or PBS alone was injected into B16 tumors grown for 7 days in Flt-L treated mice. Tumors were harvested after 6, 24, 48 and 72 h, total RNA was extracted and expression of indicated cytokines was measured by real-time PGR. Data represent expression relative to GAPDH RNA. Some mice were injected with […] of LL-37 for 3 times (t0, t24 and t48) and tumor was harvested at 72 h for RNA expression analysis.
LL-37, CpG, or saline (PBS) was injected into B16 tumors grown for 7 days in Flt-L treated mice. Tumors were harvested after 6, 24, 48 and 72 h, total RNA was extracted and expression of indicated cytokines was measured by real-time PGR. Data represent expression relative to GAPDH RNA. Data is representative of 5 mice.
[…] of LL-37 were injected into 7d-established B16 skin tumors and muscle tissue of the same mice. After 6 h tumor and muscle tissue were collected for RT-PCR analysis of IFN-a2 mRNA expression. Data represent expression relative to GAPDH RNA
In another set of experiments, 100 μg of LL-37, CpG-A or PBS alone was injected into B16 tumors grown for 7 days in Flt-L treated mice. Tumors were harvested after 6, 24, 48 and 72 h, total RNA was extracted and expression of indicated cytokines was measured by real-time PCR. […] Some mice were injected with 100 μg of LL-37 for 3 times (t0, t24 and t48) and tumor was harvested at 72 h or RNA expression analysis.
Intratumoral injection of LL-37 into native unmodified B16 melanoma induces potent type I IFN expression. 3×10^5 native B16 melanoma cells were inoculated into C57BL/6 mice. After 7 days, tumors were injected with 100 μg of LL-37, 40 μg CpG-2216 (CpG-A), or saline (PBS). Because LL-37-DNA binding (which will occur in the tumor) is optimal at a 3:1-5:1 ratio, we injected approximately 3 times more LL-37 than CpG-DNA. Tumors were harvested at 6 h, 24 h, 48 h, and 72 h after injection and total RNA was isolated and processed. Expression of IFN-α2 mRNA was measured by real-time PCR and normalized for expression of GAPDH mRNA.
LL-37 can induce type I IFN expression when injected into tumors but not into healthy tissue. Because LL-37 requires the presence of self-DNA released by dying cells to induce pDC activation to produce type I IFN, we next asked whether LL-37 could selectively induce type I IFN expression in tumors (containing a high degree of cells death) and not in healthy tissue. To address this question we injected LL-37 (100 μg) into subcutaneously implanted B16 tumors as well as healthy muscle tissue. 6 h after injection, tissues were collected and IFN-α2 mRNA expression was measured by real-time PCR, as described in C12.
In general terms: In qPCR the cycle at which signal appears reflects the starting amount.

Entries after “also recorded” stand apart in the source; their conditions may differ.

For the sequence “LLGDFFRKSKEKIGKEFKRIVQRIKDFLRNLVPRTES [LL-37]”, the “Clump formation of pDC” value in assay [1] is “induced pDC to form clumps”. Moreover, the “Maturation of pDC” value in assay [1] (not shown) was “did not induce maturation of pDC”. In assay [2], the “Induction of T cell mediated immunity (adjuvant activity)” value was “potent adjuvant activity”. Further, the “Myeloid DC maturation and cytokine secretion” value in assay [3] was “converts self-RNA and viral RNA into activator of myeloid DC maturation and cytokine secretion”. Further, the “IFN-α2 mRNA expression in tumor compared to CpG-A” value in assay [4] (100 μg LL-37 vs 40 μg CpG-2216) is reported as “more potent then the expression induced by CpG-A”. In addition, the “IFN-α2 mRNA expression in healthy muscle tissue” value in assay [4] (100 μg injected, 6 h) is “not LL-37-injected healthy muscle tissue”. Besides, the “IFN-α2 mRNA expression in B16 tumor” value in assay [4] (100 μg intratumoral) was “induced potent IFN-α2 mRNA expression; also recorded: IFN-α2 mRNA expression only in LL-37-injected tumors”. Moreover, in assay [4] (100 μg intratumoral, Flt-L treated mice, 6-72 h), the “Expression of pro-inflammatory and T-cell-derived cytokines in tumor” value is “induces expression of pro-inflammatory and T-cell-derived cytokines”.
